Assay results as given in article PMC8911025, “Design, Synthesis, and Biological Evaluation of New Azulene-Containing Chalcones” (Materials, 2022).
≈ marks a conversion by molar mass, not a printed value.

Experiments:
Assay type in all cases: cell-based
Pseudomonas aeruginosa = experiment: Antibiofilm activity (crystal violet, A490); conditions: biofilm, read-out: MBEC
Procedure: (§1) The effect of the chalcones on the biofilm formation was evaluated after the determination of the MICs. Briefly, the plates were emptied, washed to remove the nonadherent cells, fixed with methanol, and stained with crystal violet. The antibiofilm activity was determined after adding 33% acetic acid solution by measuring the absorbance at 490 nm, and the results are listed in Table 6.
(§2) The azulene-chalcone derivatives were tested for their ability to affect biofilm formation since 80% of the world’s microbial biomass is found in the biofilm state. The most efficient compound was again chalcone 6 with MBEC of 0.156–0.625 mg/mL (Table 6).

Escherichia coli = experiment: Antibiofilm activity (crystal violet, A490); conditions: biofilm, read-out: MBEC
Procedure: as §1, §2

Staphylococcus aureus = experiment: Antibiofilm activity (crystal violet, A490); conditions: biofilm, read-out: MBEC
Procedure: as §1, §2

Candida parapsilosis = experiment: Antibiofilm activity (crystal violet, A490); conditions: Lodderomyces parapsilosis, biofilm, read-out: MBEC
Procedure: as §1, §2

[1] = system: Candida parapsilosis ATCC 22019; experiment: MIC (antifungal), binary serial dilution in 96-well plates; conditions: Lodderomyces parapsilosis, ATCC22019; Candida parapsilosis ATCC 22019, 24 h at 37 °C
Procedure: (§3) The antimicrobial activity of all compounds was assessed on Gram-positive bacteria (Staphylococcus aureus ATCC 25923), Gram-negative bacteria (Escherichia coli ATCC 25922, Pseudomonas aeruginosa ATCC 27853), and fungi (Candida parapsilosis ATCC 22019) using quantitative binary serial dilution method in 96-well plates. The negative control was represented by wells with culture medium, while positive control was the microbial strain in broth. Briefly, binary serial dilutions of the compounds performed in 100 μL of broth were seeded with microbial inoculum of 10^6 colony forming units (CFU)/mL and incubated for 24 h at 37 °C. […] Due to the fact that the obtained compounds were colored, after the incubation of the 96-well plates, from each well, 10 µL were seeded on agar plates (Plate Count Agar) to determine the inhibitory concentration. The same value of the inhibitory concentration was obtained in repeated experiments.
(§4) The antibacterial effect of the azulene moiety introduced in the chalcone structure was investigated against Gram-positive (Staphylococcus aureus ATCC 25923) and Gram-negative (Escherichia coli ATCC 25922, Pseudomonas aeruginosa ATCC 27853) bacteria, while the antifungal effect was tested against Candida parapsilosis ATCC 22019. To our knowledge, the antibacterial activity of azulene-containing chalcone compounds has not been reported previously; moreover, this is the first investigation of the biological properties of azulene-containing chalcones in general. The results expressed in terms of minimum inhibitory concentration (MIC) were determined by in vitro screening of the antimicrobial properties using the broth microdilution method and are summarized in Table 5.
We further tested the azulene-containing chalcone compounds for antifungal activity against Candida parapsilosis ATCC 22019.

[2] = Cell viability assay (CellTiter Glo); conditions: human; HEp-2 cells, 48 h, CellTiter Glo; read-out: IC50 (50% cytotoxic concentration)
Procedure: (§5) To assess the toxicity of the azulene-containing chalcones, the adherent cell line HEp-2 (American Cell Type Collection [ATCC] CCL-23^TM) was used.
(§6) In order to estimate the cytotoxicity of the compounds, HEp-2 cells (American Cell Type Collection (ATCC) CCL-23) were exposed to the azulene-containing chalcones at concentrations of 200, 100, 50, and 25 μg/mL and evaluated using CellTiter Glo kit (Promega, Madison, WI, USA) assay. The results presented in Figure 3 are expressed as viability percentages versus control.

[3] = system: Escherichia coli ATCC 25922; experiment: MIC, binary serial dilution in 96-well plates; conditions: ATCC25922; Escherichia coli ATCC 25922, 24 h at 37 °C
Procedure: as §3, §4

[4] = system: Staphylococcus aureus ATCC 25923; experiment: MIC, binary serial dilution in 96-well plates; conditions: for MIC: ATCC25923, Staphylococcus aureus ATCC 25923, 24 h at 37 °C; for Aexp: Aexp = 0.1 + log (k/MIC), k = 1.250, compounds synthesized herein
Procedure: as §3, §4

[5] = system: Pseudomonas aeruginosa ATCC 27853; experiment: MIC, binary serial dilution in 96-well plates; conditions: ATCC27853; Pseudomonas aeruginosa ATCC 27853, 24 h at 37 °C
Procedure: as §3, §4

biofilm formation = experiment: Antibiofilm activity, summary over the tested strains; conditions: range over the tested strains (Table 6)
Procedure: as §1, §2

HEp-2 cells [6] = experiment: Cell viability assay (CellTiter Glo); conditions: 25-200 μg/mL
Procedure: as §5, §6

HEp-2 cells [7] = experiment: Cell cycle analysis (propidium iodide, flow cytometry); conditions: HEp-2, starting from 50 µg/mL
Procedure: For cell cycle analysis, a suspension of 7.5 × 10^4 HEp-2 cells was seeded for 24 h in a 1 cm^2 well in DMEM:F12 containing 10% fetal bovine serum. After recovery, the cells were treated with 50 µg/mL or 100 µg/mL azulene-containing chalcone, and 24 h later, the cells were harvested, fixed in cold ethanol overnight, and stained with RNase A/propidium iodide at a concentration of 1 mg/mL to 100 µg/mL. The events were recorded using the Beckman Coulter flow cytometer and analyzed using FlowJo 7.2.5 software.
The cytotoxicity data were also confirmed by cell cycle analysis. Among the tested compounds, chalcone 10 induced an increase in the G2/M phase starting from a concentration of 50 µg/mL (Supplementary Material Figure S2), the effect increasing slightly with the concentration of the tested compound. The increase in the G2/M phase was also observed in the case of compound 9, but at a higher concentration (100 µg/mL), but this effect was lower (Figure 4).

caspase 9 = experiment: Gene expression quantification (qPCR); conditions: HEp-2, 100 µg/mL, 24 h
Procedure: (§7) The mechanism of azulene-containing chalcone toxicity was assessed by gene expression evaluation. HEp-2 cells were seeded in 6-well plates at a concentration of 3 × 10^5 cells/wells in DMEM:F12 supplemented with 10% FBS. The cells were treated with azulene-containing chalcone at a concentration of 100 µg/mL. After 24 h, the cells were harvested and centrifuged, and the pellet was subjected to total RNA extraction using Trizol reagent (Sigma, St. Louis, MO, USA). The cDNA was produced using 2 µg total RNA and High Capacity Reverse Transcription Kit (Thermo Fisher Scientific, Chelmsford, MA, USA). Fifty nanograms of cDNA was subjected to PCR reaction using Maxima SYBR Green/ROX qPCR Master Mix (Thermo Fisher Scientific, Chelmsford, MA, USA) and Origene primer pairs: caspase 3 (CAT#: HP207674) caspase 7 (CAT#: HP233752), caspase 8 (CAT#: HP234494), caspase 9 (CAT#: HP205155), caspase 10 (CAT#: HP228052). For NOX-4 and NOS2, the following primers were used: NOX 4 forward 5′-[…]-3 and reverse 5′-[…]-3′ and NOS2 forward 5′-[…]-3′ and reverse 5′-[…]-3′. Amplification was completed using StepOne Real-Time PCR System (Thermo Fisher Scientific, Chelmsford, MA, USA). The relative changes in the levels of mRNA expression were quantified by using the 2^−ΔΔCT method.
(§8) Production of procaspase 8 mRNA was inhibited by 7, 9, and 10, with an important role in extrinsic apoptosis induction remaining for caspase 10. Cellular stress induces intrinsic apoptosis by caspase 9 activation that stimulates the caspase cascade, culminating in activation of executioner caspases 3 and 7 [42]. The mRNA expression of caspase 9 was activated following the treatment with 100 µg/mL of compounds 1–8 but inhibited by 9 and 10.

caspase 8 = experiment: Gene expression quantification (qPCR); conditions: HEp-2, 100 µg/mL, 24 h
Procedure: as §7, §8

caspase 3 = experiment: Gene expression quantification (qPCR); conditions: HEp-2, 100 µg/mL, 24 h
Procedure: as §7
(§9) We observed that the expression of both executioner caspases, caspase 3 (Casp 3), and caspase 7 (Casp 7), was activated by azulene (Figure 5, right). The production of procaspase 3 and 7 mRNA in the case of compounds 9 and 10 was quite reduced, probably correlated with the decreased number of cells.

caspase 7 = experiment: Gene expression quantification (qPCR); conditions: HEp-2, 100 µg/mL, 24 h
Procedure: as §7, §9

| SMILES | minimal effective concentration (Pseudomonas aeruginosa) [µg/mL] | minimal effective concentration (Escherichia coli) [µg/mL] | minimal effective concentration (Staphylococcus aureus) [µg/mL] | minimal effective concentration (Candida parapsilosis) [µg/mL] | MIC [1] [µg/mL] | IC50 at 48 h [2] [µg/mL] | MIC [3] [µg/mL] | MIC [4] [µg/mL] | Aexp [4] | MIC [5] [µg/mL] | MBEC (biofilm formation) [mg/mL] | cytotoxicity (HEp-2 cells [6]) | effect on G2/M phase (HEp-2 cells [7]) | mRNA expression of caspase 9 (caspase 9) | procaspase 8 mRNA production (caspase 8) | procaspase 3 mRNA expression (caspase 3) | procaspase 7 mRNA expression (caspase 7) |
| --- | --- | --- | --- | --- | --- | --- | --- | --- | --- | --- | --- | --- | --- | --- | --- | --- | --- |
| O=C(/C=C/c1ccc2cccccc1-2)c1ccc(O)cc1 [Compound 2, (E)-3-(Azulen-1-yl)-1-(4-hydroxyphenyl)prop-2-en-1-one] | 625 | 625 | 1250 | 312 | 312 (≈ 1140 µM) | 97.5 (≈ 355 µM) | 625 (≈ 2280 µM) | 1250 (≈ 4560 µM) | 0.100 | 625 (≈ 2280 µM) |  |  |  |  |  |  |  |
| Nc1ccc(C(=O)/C=C/c2ccc3cccccc2-3)cc1 [Compound 3, (E)-1-(4-Aminophenyl)-3-(azulen-1-yl)prop-2-en-1-one] | 1250 | 625 | 2500 | 625 | 312 (≈ 1140 µM) | 114 (≈ 415 µM) | 625 (≈ 2290 µM) | 1250 (≈ 4570 µM) | 0.100 | 625 (≈ 2290 µM) |  |  |  |  |  |  |  |
| O=C(/C=C/c1ccc2cccccc1-2)c1cccc2ccccc12 [Compound 4, (E)-3-(Azulen-1-yl)-1-(naphthalen-1-yl)prop-2-en-1-one] | 625 | 625 | 1250 | 625 | 312 (≈ 1010 µM) | 61.8 (≈ 200 µM) | 625 (≈ 2030 µM) | 1250 (≈ 4050 µM) | 0.100 | 625 (≈ 2030 µM) |  |  |  |  |  |  |  |
| O=C(/C=C/c1ccc2cccccc1-2)c1ccc2ccccc2c1 [Compound 5, (E)-3-(Azulen-1-yl)-1-(naphthalen-2-yl)prop-2-en-1-one] | 1250 | 625 | 2500 | 625 | 312 (≈ 1010 µM) | 102 (≈ 332 µM) | 625 (≈ 2030 µM) | 1250 (≈ 4050 µM) | 0.100 | 625 (≈ 2030 µM) |  |  |  |  |  |  |  |
| O=C(/C=C/c1ccc2cccccc1-2)c1ccc2cccccc1-2 [Compound 6, (E)-1,3-Di(azulen-1-yl)prop-2-en-1-one] | 625 | 625 | 625 | 156 | 156 (≈ 506 µM) | 78.6 (≈ 255 µM) | 625 (≈ 2030 µM) | 625 (≈ 2030 µM) | 0.401 | 625 (≈ 2030 µM) | 0.156 to 0.625 | low toxicity |  |  |  |  |  |
| O=C(/C=C/c1cc(Br)c2cccccc1-2)c1ccc2cccccc1-2 [Compound 8, (E)-1-(Azulen-1-yl)-3-(3-bromoazulen-1-yl)prop-2-en-1-one] | 1250 | 625 | 1250 | 312 | 312 (≈ 806 µM) | 93.5 (≈ 242 µM) | 625 (≈ 1610 µM) | 1250 (≈ 3230 µM) | 0.100 | 625 (≈ 1610 µM) |  |  |  |  |  |  |  |
| Cc1cc(C(=O)/C=C/c2ccc3cccccc2-3)c2cccccc1-2 [Compound 10, (E)-3-(Azulen-1-yl)-1-(3-methylazulen-1-yl)prop-2-en-1-one] | 625 | 625 | 1250 | 312 | 312 (≈ 968 µM) | 4.95 (≈ 15.4 µM) | 625 (≈ 1940 µM) | 1250 (≈ 3880 µM) | 0.100 | 625 (≈ 1940 µM) |  | most toxic | increase | inhibited | inhibited | quite reduced | quite reduced |
